Data from US8623924B2, “Compositions and methods for modulating metabolic pathways” (Nusirt Sciences, Inc., priority 2011, dated 2014).
Marks after values point to notes of the source that are not given here.

Assays:
SIRT1 [1] = test: Sirt1 activity (fluorimetric kit), Example 5; type: cell-based; conditions: leucine 0.5 mM, HMB 5 μM, resveratrol 200 nM; summary in Example 5
Experimental: Sirt1 Activity: SIRT1 activity was measured by using the SIRT1 Fluorimetric Drug Discovery Kit (BML-AK555, ENZO Life Sciences International, Inc. PA, USA). The assay measures SIRT1 activity by the degree of deacetylation of a standardized substrate containing an acetylated lysine side chain. The substrate utilized is a peptide containing […] of human […]]), an established target of SIRT1 activity; SIRT1 activity is directly proportional to the degree of deacetylation of […]. Samples were incubated with peptide substrate (25 μM), and NAD^+ (500 μM) in a phosphate-buffered saline solution at 37° C. on a horizontal shaker for 45 minutes. The reaction was stopped with the addition of 2 mM nicotinamide and a developing solution that binds to the deacetylated lysine to form a fluorophore.

IL-6 = test: Inflammatory biomarker IL-6 in diet-induced obese mice; type: in vivo; conditions: 6 weeks on diet
Adipocytes (3T3-L1) = test: Fatty acid oxidation (3H-palmitate) in 3T3-L1 adipocytes; type: cell-based; conditions: leucine 0.5 mM, resveratrol 200 nM
Experimental: High glucose medium reduced fatty acid oxidation by 46% (p<0.05).
Fatty acid oxidation was measured using ^3H-labeled palmitate oxidation, with the ^3H label trapped as water as a result of the fat oxidation. The ^3H was then measured via scintillation counter.

C-reactive protein = test: Inflammatory biomarker C-reactive protein in diet-induced obese mice; type: in vivo; conditions: 6 weeks on diet
MCP-1 = test: Inflammatory biomarker MCP-1 in diet-induced obese mice; type: in vivo; conditions: 6 weeks on diet
Adiponectin = Adiponectin in diet-induced obese mice; type: in vivo; conditions: 6 weeks on diet
[2] = Indices of insulin sensitivity (plasma glucose, insulin, HOMAIR) in diet-induced obese mice; type: in vivo; conditions: 6 weeks on diet; for Glucose (mM) / Insulin (μU/mL): plasma
Source text: Insulin sensitivity can be measured using a variety of techniques, including HOMAIR. HOMAIR, which is the homeostasis model assessment of insulin resistance can be used as a screening index of changes in insulin sensitivity. HOMAIR can be calculated via standard formula from fasting plasma insulin and glucose as follows: HOMAIR=[Insulin (uU/mL)×glucose (mM)]/22.5.
(§1) Six week old male c57/BL6 mice were fed a high-fat diet with fat increased to 45% of energy (Research Diets D12451) for 6 weeks to induce obesity.
(§2) At the of the treatment period (6 weeks) all animals were humanely euthanized, and blood and tissues collected for further experiments.

UCP1 = test: Subcutaneous adipose UCP1 mRNA expression in diet-induced obese mice; type: in vivo; conditions: six weeks, resveratrol 12.5 mg/kg diet
[3] = Oxygen consumption/substrate utilization (metabolic chambers) in diet-induced obese mice; type: in vivo
Experimental: as §1
Oxygen Consumption/Substrate Utilization: at the end of the obesity induction period (day 0 of treatment group) and at 2 weeks and 6 weeks of treatment, oxygen consumption and substrate utilization was measured via metabolic chambers using the Comprehensive Lab Animal Monitoring Systems (CLAMS, Columbus Instruments, Columbus, Ohio) in subgroups of each treatment group. Each animal was placed in individual cages without bedding that allow automated, non-invasive data collection. Each cage is an indirect open circuit calorimeter that provides measurement of oxygen consumption, carbon dioxide production, and concurrent measurement of food intake. All mice were acclimatized to the chambers for 24 hours prior to the experiment and maintained under the regular 12:12 light:dark cycle with free access to water and food. All experiments were started in the morning and data were collected for 24 hours. Each chamber was passed with 0.6 l of air/min and was sampled for 2 min at 32-minute intervals. Exhaust O2 and CO2 content from each chamber was compared with ambient O2 and CO2 content. Food consumption was measured by electronic scales.

Sirt1 [4] = target: T1, Sirt1 (Mus musculus, UniProt Q923E4); test: Adipose tissue Sirt1 activity in diet-induced obese mice; type: in vivo
T1 construct: from tissue; host or cells: adipose tissue of c57/BL6 mice
T1 sequence (Q923E4 1-737): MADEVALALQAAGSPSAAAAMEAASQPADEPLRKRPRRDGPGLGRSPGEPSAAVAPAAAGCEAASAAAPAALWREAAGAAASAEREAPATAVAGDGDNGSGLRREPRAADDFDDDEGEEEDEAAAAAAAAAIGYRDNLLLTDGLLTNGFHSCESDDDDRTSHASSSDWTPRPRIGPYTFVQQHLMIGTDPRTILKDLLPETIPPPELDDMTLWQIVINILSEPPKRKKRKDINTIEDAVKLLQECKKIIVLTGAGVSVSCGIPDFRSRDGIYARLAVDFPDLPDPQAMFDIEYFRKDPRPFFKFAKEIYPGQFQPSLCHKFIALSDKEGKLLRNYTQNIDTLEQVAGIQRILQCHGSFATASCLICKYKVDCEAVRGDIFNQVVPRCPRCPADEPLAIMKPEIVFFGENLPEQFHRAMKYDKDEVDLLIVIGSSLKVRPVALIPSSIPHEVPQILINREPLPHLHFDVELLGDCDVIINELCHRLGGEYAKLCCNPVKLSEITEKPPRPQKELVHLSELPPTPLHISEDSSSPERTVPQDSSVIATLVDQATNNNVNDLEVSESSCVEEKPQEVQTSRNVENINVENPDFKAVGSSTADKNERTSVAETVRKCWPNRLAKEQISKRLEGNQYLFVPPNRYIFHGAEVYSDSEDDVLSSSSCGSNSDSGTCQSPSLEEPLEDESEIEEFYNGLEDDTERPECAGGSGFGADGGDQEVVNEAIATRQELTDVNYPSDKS

irisin = test: Plasma irisin in diet-induced obese mice; type: in vivo; conditions: six weeks, resveratrol 12.5 mg/kg diet, leucine 2.42%
Experimental: as §1
As described in Example 5, C2C12 myotubes treated with the indicated combinations of compounds were used to produce conditioned media, with which 3T3-L1 adipocytes were then treated. Fatty acid oxidation was measured as in Example 5. Irisin levels were measured by Western blot and ELISA, both in conditioned media and in plasma from mice treated according to Example 4.
ELISA: Irisin was also detected in C2C12 incubation media from treated cells and in mouse plasma using a commercial enzyme immunoassay kit obtained from Phoenix Pharmaceuticals, Inc. (Burlingame, Calif.). This kit uses an irisin (FNDC5 [16-127] fragment) and streptavidin-horseradish peroxidase detection on a microplate reader at 450 nm.

[5] = Body weight, weight gain and visceral adiposity in diet-induced obese mice; type: in vivo; conditions: 6 weeks on diet
Source text: as §1, §2

[6] = MicroPET/CT glucose and palmitate uptake in diet-induced obese mice; type: in vivo; conditions: 6 weeks on diet
Source text: as §1
MicroPET/CT (Glucose and Palmitate Uptake): At the end of the treatment period (6 weeks of treatment) subgroups of each treatment diet group (5 animals/group, 35 animals total) were used to measure whole body glucose and palmitate uptake via PET/CT Imaging. To visualize these compounds using microPET imaging, the glucose or palmitate was labeled with fluorine-18 (108 mins half life) or carbon-11 (20 mins half life), respectively. Each mouse was fasted for 4 hours, then anesthetized using 1-3% isoflurane delivered by nose cone or in a mouse-sized induction chamber purpose-built for small animal imaging protocols. While under anesthesia the mice were injected iv with <2 mCi of each tracer, then be left for a period of time (minutes to up ˜1 hour) to allow the uptake of the tracer. During the scan, mice were kept warm using a thermostatically controlled heated bed and were treated with ophthalmic ointment prior to scanning. Following the live scan the mice were returned to their cage and revived. Mice were monitored constantly during this time. Following live data acquisition the mice were sacrificed by isoflurane overdose and organs harvested for further experiments.

[7] = high resveratrol 225 mg/kg diet
[8] = low resveratrol 12.5 mg/kg diet, low HMB 2 g CaHMB/kg diet, high HMB 10 g CaHMB/kg diet, leucine 2.42% of diet

Oc1ccc(/C=C/c2cc(O)cc(O)c2)cc1 [resveratrol, 3,5,4′-Trihydroxy-trans-stilbene]
stimulation of Sirt1 activity (SIRT1 [1]): no effect
IL-6 (pg/mL) (IL-6; [7]): 14.1 ± 1.3^b pg/mL
IL-6 (pg/mL) (IL-6; [8]): 23.2 ± 2.9^a pg/mL
increase in fatty acid oxidation, high glucose (Adipocytes (3T3-L1); high (25 mM) glucose, 4 hours, HMB 5 uM, vs. control): no effect
stimulation of fatty acid oxidation (Adipocytes (3T3-L1); HMB 5 μM, summary in Example 5): no effect
C-reactive protein (ng/mL) (C-reactive protein; [7]): 123.9 ± 35.3^a ng/mL
C-reactive protein (ng/mL) (C-reactive protein; [8]): 134.8 ± 8.5^a ng/mL
MCP-1 (pg/mL) (MCP-1; [7]): 27.3 ± 6.8^b pg/mL
MCP-1 (pg/mL) (MCP-1; [8]): 104.4 ± 16.5^a pg/mL
Adiponectin (ng/mL) (Adiponectin; [7]): 14.8 ± 1.8^b ng/mL
Adiponectin (Adiponectin; [8]): 12.4 ± 1.1 ng/mL
HOMAIR [2, 7]: 0.59 ± 0.26^b
HOMAIR [2, 8]: 2.41 ± 0.66^a
Glucose (mM) [2, 7]: 5.14 ± 0.75^a mM
Insulin (μU/mL) [2, 7]: 10.1 ± 2.7^a μU/mL
Glucose (mM) [2, 8]: 5.14 ± 0.85^a mM
Insulin (μU/mL) [2, 8]: 10.4 ± 1.6^a μU/mL
increase in UCP1 expression in white subcutaneous adipose tissue (UCP1): no independent effect
Heat Production [3, 7]: 0.552 ± 0.015^b
Heat Production [3, 8]: 0.517 ± 0.014^a
adipose tissue Sirt1 activity (Sirt1 [4]; high dose resveratrol (FIG. 10)): non-significant trend towards an increase
adipose tissue Sirt1 activity (Sirt1 [4]; low dose of resveratrol, HMB, or their combinations with HMB or leucine (FIG. 10)): Neither resveratrol nor HMB exerted significant independent effects
increase in plasma irisin (irisin): no independent effect
Visceral Adipose Volume (mm^3) [5, 7]: 6031 ± 323^a mm^3
Weight (g) [5, 7]: 38.7 ± 1.2^a g
Weight gain (g) [5, 7]: 22.3 ± 2.4^a g
Visceral Adipose Volume (mm^3) [5, 8]: 6551 ± 575^a mm^3
Weight (g) [5, 8]: 40.8 ± 2.5^a g
Weight gain (g) [5, 8]: 20.9 ± 1.5^a g
Fat oxidation (PET palmitate uptake; Muscle SUV) [6, 7]: 2.29 ± 0.11^b SUV
Muscle Glucose Uptake (18F-deoxyglucose SUV) [6, 7]: 3.87 ± 0.32^a SUV
Fat oxidation (PET palmitate uptake; Muscle SUV) [6, 8]: 1.51 ± 0.44^a SUV
Muscle Glucose Uptake (18F-deoxyglucose SUV) [6, 8]: 3.63 ± 1.29^a SUV
